Test results published in patent US20150011751A1, “NOVEL TRIAZINE DERIVATIVE” (CARNA BIOSCIENCES, INC., priority 2012, published 2015).

Biological target: Dephosphorylated BTK (Homo sapiens, UniProt Q06187)
Assay: Test of activity inhibition against dephosphorylated BTK (mobility shift assay)

Chain of Dephosphorylated BTK (Q06187 whole entry): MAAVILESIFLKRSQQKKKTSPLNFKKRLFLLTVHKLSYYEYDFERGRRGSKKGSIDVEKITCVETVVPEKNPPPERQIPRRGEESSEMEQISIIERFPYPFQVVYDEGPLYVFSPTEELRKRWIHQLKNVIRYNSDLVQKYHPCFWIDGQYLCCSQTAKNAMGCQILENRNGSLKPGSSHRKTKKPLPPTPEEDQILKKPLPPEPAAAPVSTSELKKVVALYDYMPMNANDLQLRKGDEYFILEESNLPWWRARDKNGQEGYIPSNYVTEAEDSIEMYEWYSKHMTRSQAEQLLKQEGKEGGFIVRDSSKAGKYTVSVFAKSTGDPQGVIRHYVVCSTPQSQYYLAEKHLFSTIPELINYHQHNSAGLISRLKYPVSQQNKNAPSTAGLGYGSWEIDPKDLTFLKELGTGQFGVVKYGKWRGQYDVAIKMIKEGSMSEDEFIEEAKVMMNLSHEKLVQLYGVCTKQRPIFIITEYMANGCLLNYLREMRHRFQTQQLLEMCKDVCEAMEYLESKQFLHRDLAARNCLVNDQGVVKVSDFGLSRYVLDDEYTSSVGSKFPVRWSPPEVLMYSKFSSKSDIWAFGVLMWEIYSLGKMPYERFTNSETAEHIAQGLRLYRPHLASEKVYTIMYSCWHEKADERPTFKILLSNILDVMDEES

Row | SMILES | IC50 [nM]
1 | CC(C)(C)c1ccc(C(=O)Nc2cccc(-c3nc(N)nc(Nc4ccc(-n5ccnc5)cc4)n3)c2CO)cc1 [Example 185, N-[3-(4-{[4-(1H-Imida-zol-1-yl)phenyl]amino}-6-amino-1,3,5-triazin-2-yl)-2-(hydroxymeth-yl)phenyl]-4-(tert-butyl)benzamide] | 1.2
2 | CC(C)(C)c1ccc(C(=O)Nc2cccc(-c3nc(N)nc(Nc4ccc5[nH]c(C(F)(F)F)nc5c4)n3)c2CO)cc1 [Example 187, N-[3-(4-Amino-6-{[2-(tri-fluoromethyl)-1H-benzo[d]imidazol-5-yl]amino}-1,3,5-triazin-2-yl)-2-(hydroxymeth-yl)phenyl]-4-(tert-butyl)benzamide] | 5.6
3 | Nc1nc(Nc2ccc(N3CCN(C=O)CC3)cc2)nc(-c2cccc(N3CCc4cc(C5CC5)cc(F)c4C3=O)c2CO)n1 [Example 189, 4-[4-({4-Amino-6-[3-(6-cyclopropyl-8-fluoro-1-oxo-3,4-dihydroiso-quinolin-2(1H)-yl)-2-(hydroxymethyl)phenyl]-1,3,5-triazin-2-yl}amino)phenyl]pipera-zine-1-carbaldehyde] | 1.2
4 | N#CCc1ccc(Nc2nc(N)nc(-c3cccc(N4CCc5cc(C6CC6)cc(F)c5C4=O)c3CO)n2)cc1 [Example 190, 2-[4-({4-Amino-6-[3-(6-cyclopropyl-8-fluoro-1-oxo-3,4-dihydroiso-quinolin-2(1H)-yl)-2-(hydroxymethyl)phenyl]-1,3,5-triazin-2-yl}amino)phenyl]acetonitrile] | 1.4
5 | CN1CCN(c2ccc(Nc3nc(N)nc(-c4cccc(N5CCc6cc(C7CC7)cc(F)c6C5=O)c4CO)n3)cc2)CC1 [Example 193, 2-[3-(4-Amino-6-{[4-(4-methylpiperazin-1-yl)phenyl]amino}-1,3,5-triazin-2-yl)-2-(hy-droxymethyl)phenyl]-6-cyclopropyl-8-fluoro-3,4-dihydroisoquinolin-1(2H)-one] | 1.1

Compounds with a lower IC50, results first:

Row | IC50 [nM] | SMILES
6 | 1 | Nc1nc(Nc2ccc(N3CCNCC3)cc2)nc(-c2cccc(N3CCc4cc(C5CC5)cc(F)c4C3=O)c2CO)n1 [Example 191, 2-[3-(4-Amino-6-{[4-(pipe-razin-1-yl)phenyl]amino}-1,3,5-triazin-2-yl)-2-(hydroxymeth-yl)phenyl]-6-cyclopro-pyl-8-fluoro-3,4-dihy-droisoquinolin-1(2H)-one]
7 | 0.9 | Nc1nc(Nc2ccc(OC3CCOCC3)c(F)c2)nc(-c2cccc(N3CCc4cc(C5CC5)cc(F)c4C3=O)c2CO)n1 [Example 194, 2-{3-[4-Amino-6-({3-fluoro-4-[(tetrahydro-2H-pyran-4-yl)oxy]phe-nyl}amino)-1,3,5-tria-zin-2-yl]-2-(hydroxy-methyl)phenyl}-6-cyclo-propyl-8-fluoro-3,4-dihydroisoquinolin-1(2H)-one]
8 | 0.8 | CC(C)(C)c1ccc(C(=O)Nc2cccc(-c3nc(N)nc(Nc4ccc(OCCO)cc4)n3)c2CO)cc1 [Example 184, N-[3-(4-Amino-6-{[4-(2-hydroxyethoxy)phenyl]amino}-1,3,5-triazin-2-yl)-2-(hydroxymeth-yl)phenyl]-4-(tert-butyl)benzamide]
9 | 0.8 | Nc1nc(Nc2cn[nH]c2)nc(-c2cccc(N3CCc4cc(C5CC5)cc(F)c4C3=O)c2CO)n1 [Example 195, 2-(3-{4-[(1H-Pyrazol-4-yl)amino]-6-amino-1,3,5-triazin-2-yl}-2-(hydroxymethyl)phenyl)-6-cyclopropyl-8-fluoro-3,4-dihydro-isoquinolin-1(2H)-one]
10 | 0.7 | CC1(c2ccc(C(=O)Nc3cccc(-c4nc(N)nc(Nc5ccc(N6CCOCC6)cc5)n4)c3CO)cc2)CC1 [Example 192, N-(3-{4-Amino-6-[(4-morph-olinophenyl)amino]-1,3,5-triazin-2-yl}-2-(hydroxymethyl)phe-nyl)-4-(1-methylcyclo-propyl)benzamide]
11 | 0.4 | COc1cc(Nc2nc(N)nc(-c3cccc(NC(=O)c4ccc(C(C)(C)C)cc4)c3CO)n2)cc(OC)c1OCCCO [Example 188, N-[3-(4-Amino-6-{[4-(3-hyroxypropoxy)-3,5-dimethoxyphenyl]ami-no}-1,3,5-triazin-2-yl)-2-(hydroxymethyl)phe-nyl]-4-(tert-butyl) benzamide]
